Like-named read-outs stand apart in the source and are kept apart here.
Legend:
[1] = second-order dependence on peracetic acid concentration (Yuan et al.); cited from earlier work
[2] = Peracetic acid stability versus pH; assay type: physicochemical; conditions: acetic acid buffer at pH 5.0-5.8
[3] = system: Bacillus subtilis spores; conditions: cited from earlier work
[4] = system: pathogenic microorganisms; conditions: cited from earlier work; for minimum effective concentration for high-level disinfection: 20° C.

Row | Compound | pH of maximum decomposition rate [1] | amount which can be stably maintained [2] | time for killing all Bacillus subtilis spores ([3]; PAA at 0.013 m/l (0.10% w/v), pH 5.0) | time for killing all Bacillus subtilis spores ([3]; PAA at 0.013 m/l (0.10% w/v), pH 8.0) | reduction in sporicidal rate of kill activity between pH 8.0 and pH 5.0 ([3]; PAA at 0.13-0.38 m/l (0.99-2.89% w/v)) | decrease of sporicidal activity between pH 2.6 and pH 8.0 (factor) ([3]; work of Baldry) | increase in sporicidal kill time at pH 8.0 versus 5.0 ([3]; work of Baldry) | increase in kill time at pH 2.6 versus pH 5.0 ([3]; work of Baldry, possible factor) | minimum effective concentration for high-level disinfection ([4]; 25 min, Peract) | minimum effective concentration for high level disinfection in a short time interval or sterilization over a longer soak period [4] | time for killing all Bacillus subtilis spores ([3]; pH 5) | time for killing all Bacillus subtilis spores ([3]; pH 8) | minimum effective concentration for high-level disinfection ([4]; 30 min, Sporox)
1 | CC(=O)OO [PAA, peracetic acid] | 8.2 | less than 700 ppm | 1 h | > 6 h | did not show a reduction | 3-10 times | 6 times | 2 times | 0.05% | 500 ppm |  |  | 
2 | OO [Formulation H2O2, hydrogen peroxide] |  |  |  |  |  |  |  |  |  |  | 3 h | 6 h | 6.0%

From patent US6468472B1 (priority 1999, dated 2002)
